Source: PubChem BioAssay AID1963836 (Molecular Pharmacology Branch, DTP, NCI, 2024)

Test system: 857933-349-R-J2-PDC complex spheroid viability
Assay: Anticancer human tumor 857933-349-R-J2-PDC patient-derived colon adenocarcinoma cell line growth inhibition [POLQ]
Details: for IC50: curve of first compound; for viability, T/C: stronger effect = lower value; active = viability on the fitted dose curve at most 10% of control; inactive = the rest
In short: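 Growth inhibition in 3D: complex spheroids (tumor PDC, HUVEC, MSC) treated with POLQ inhibitor combinations; where Cmax unknown, highest tested concentration 10 microM, except SN-38 at 1 microM.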

[1] = second compound 0.0316 µM, first compound 0.00316 µM
[2] = second compound 0.0316 µM, first compound 0.01 µM
[3] = second compound 0.0316 µM, first compound 0.0316 µM
[4] = second compound 0.0316 µM, first compound 0.1 µM
[5] = second compound 0.1 µM, first compound 0.00316 µM
[6] = second compound 0.1 µM, first compound 0.01 µM
[7] = second compound 0.1 µM, first compound 0.0316 µM
[8] = second compound 0.1 µM, first compound 0.1 µM
[9] = second compound 0.316 µM, first compound 0.00316 µM
[10] = second compound 0.316 µM, first compound 0.01 µM
[11] = second compound 0.316 µM, first compound 0.0316 µM
[12] = second compound 0.316 µM, first compound 0.1 µM
[13] = second compound 1 µM, first compound 0.00316 µM
[14] = second compound 1 µM, first compound 0.01 µM
[15] = second compound 1 µM, first compound 0.0316 µM
[16] = second compound 1 µM, first compound 0.1 µM
[17] = second compound 3.16 µM, first compound 0.00316 µM
[18] = second compound 3.16 µM, first compound 0.01 µM
[19] = second compound 3.16 µM, first compound 0.0316 µM
[20] = second compound 3.16 µM, first compound 0.1 µM
[21] = second compound 10 µM, first compound 0.00316 µM
[22] = second compound 10 µM, first compound 0.01 µM
[23] = second compound 10 µM, first compound 0.0316 µM
[24] = second compound 10 µM, first compound 0.1 µM
[25] = second compound 0.0316 µM, first compound 0.316 µM
[26] = second compound 0.0316 µM, first compound 1 µM
[27] = second compound 0.1 µM, first compound 0.316 µM
[28] = second compound 0.1 µM, first compound 1 µM
[29] = second compound 0.316 µM, first compound 0.316 µM
[30] = second compound 0.316 µM, first compound 1 µM
[31] = second compound 1 µM, first compound 0.316 µM
[32] = second compound 1 µM, first compound 1 µM
[33] = second compound 3.16 µM, first compound 0.316 µM
[34] = second compound 3.16 µM, first compound 1 µM
[35] = second compound 10 µM, first compound 0.316 µM
[36] = second compound 10 µM, first compound 1 µM
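Note: spheroids exposed to compounds for seven days before readout.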

CC[C@@]1(O)C(=O)OCc2c1cc1n(c2=O)Cc2cc3c(CN(C)C)c(O)ccc3nc2-1 + Nc1ccc(C#CCN(C(=O)Cc2ncc(C(F)(F)F)cc2C(F)(F)F)c2ccc(F)cc2)nn1
0.0638 µM: IC50 (second compound 3.16 µM)
> 0.1 µM: IC50 (second compound 0.1 µM)
0.0773 µM: IC50 (second compound 0.316 µM)
0.0717 µM: IC50 (second compound 0.0316 µM)
0.0869 µM: IC50 (second compound 1 µM)
0.0519 µM: IC50 (second compound 10 µM)
inactive: viability, T/C (second compound 0.0316 µM, first compound 0.000316 µM) 89.2% | viability, T/C (second compound 0.0316 µM, first compound 0.001 µM) 103% | viability, T/C [1] 88.6% | viability, T/C [2] 70.7% | viability, T/C [3] 66.2% | viability, T/C [4] 44% | viability, T/C (second compound 0.1 µM, first compound 0.000316 µM) 98.9% | viability, T/C (second compound 0.1 µM, first compound 0.001 µM) 95.7% | viability, T/C [5] 94.8% | viability, T/C [6] 82.3% | viability, T/C [7] 71% | viability, T/C [8] 50.6% | viability, T/C (second compound 0.316 µM, first compound 0.000316 µM) 107% | viability, T/C (second compound 0.316 µM, first compound 0.001 µM) 121% | viability, T/C [9] 87.5% | viability, T/C [10] 87% | viability, T/C [11] 73.3% | viability, T/C [12] 43% | viability, T/C (second compound 1 µM, first compound 0.000316 µM) 99.5% | viability, T/C (second compound 1 µM, first compound 0.001 µM) 100% | viability, T/C [13] 97.2% | viability, T/C [14] 94.4% | viability, T/C [15] 74% | viability, T/C [16] 46.7% | viability, T/C (second compound 3.16 µM, first compound 0.000316 µM) 92.6% | viability, T/C (second compound 3.16 µM, first compound 0.001 µM) 96% | viability, T/C [17] 92.1% | viability, T/C [18] 76.6% | viability, T/C [19] 61.8% | viability, T/C [20] 42.9% | viability, T/C (second compound 10 µM, first compound 0.000316 µM) 75.2% | viability, T/C (second compound 10 µM, first compound 0.001 µM) 86.1% | viability, T/C [21] 92.5% | viability, T/C [22] 76.6% | viability, T/C [23] 61.3% | viability, T/C [24] 35.6%

CCc1cc2c(N3CCc4c(cc(Cn5ccnc5)cc4-c4cn(C)nc4C(F)(F)F)C3=O)cc(C)nc2c(OC)n1 + COC1C(OC(N)=O)C(O)C(Oc2ccc3c(O)c(NC(=O)c4ccc(O)c(CC=C(C)C)c4)c(=O)oc3c2C)OC1(C)C
> 10 µM: IC50 (second compound 0.0316 µM) | IC50 (second compound 0.1 µM) | IC50 (second compound 0.316 µM) | IC50 (second compound 1 µM) | IC50 (second compound 3.16 µM) | IC50 (second compound 10 µM)
inactive: viability, T/C [3] 116% | viability, T/C [4] 80.3% | viability, T/C [25] 72.3% | viability, T/C [26] 61.8% | viability, T/C (second compound 0.0316 µM, first compound 3.16 µM) 68.5% | viability, T/C (second compound 0.0316 µM, first compound 10 µM) 56.2% | viability, T/C [7] 97.5% | viability, T/C [8] 77.6% | viability, T/C [27] 95.5% | viability, T/C [28] 58.6% | viability, T/C (second compound 0.1 µM, first compound 3.16 µM) 68.2% | viability, T/C (second compound 0.1 µM, first compound 10 µM) 52.9% | viability, T/C [11] 117% | viability, T/C [12] 88.3% | viability, T/C [29] 75.3% | viability, T/C [30] 61.7% | viability, T/C (second compound 0.316 µM, first compound 3.16 µM) 82.9% | viability, T/C (second compound 0.316 µM, first compound 10 µM) 67.5% | viability, T/C [15] 102% | viability, T/C [16] 95.3% | viability, T/C [31] 78.8% | viability, T/C [32] 60.2% | viability, T/C (second compound 1 µM, first compound 3.16 µM) 52.8% | viability, T/C (second compound 1 µM, first compound 10 µM) 57.7% | viability, T/C [19] 77.7% | viability, T/C [20] 76.1% | viability, T/C [33] 89.7% | viability, T/C [34] 80.1% | viability, T/C (second compound 3.16 µM, first compound 3.16 µM) 57.5% | viability, T/C (second compound 3.16 µM, first compound 10 µM) 68.3% | viability, T/C [23] 71.3% | viability, T/C [24] 86.3% | viability, T/C [35] 72.7% | viability, T/C [36] 71.3% | viability, T/C (second compound 10 µM, first compound 3.16 µM) 91.8% | viability, T/C (second compound 10 µM, first compound 10 µM) 58%

C=CCn1c(=O)c2cnc(Nc3ccc(N4CCN(C)CC4)cc3)nc2n1-c1cccc(C(C)(C)O)n1 + Cc1cccc(N(C)C(=O)C2C(O)CCN2c2nc(C)cc(C(F)(F)F)c2C#N)c1
> 1 µM: IC50 (second compound 0.0316 µM) | IC50 (second compound 0.1 µM) | IC50 (second compound 0.316 µM) | IC50 (second compound 1 µM) | IC50 (second compound 3.16 µM) | IC50 (second compound 10 µM)
inactive: viability, T/C [1] 103% | viability, T/C [2] 98.2% | viability, T/C [3] 96.8% | viability, T/C [4] 112% | viability, T/C [25] 96.2% | viability, T/C [26] 79.3% | viability, T/C [5] 99.4% | viability, T/C [6] 98.9% | viability, T/C [7] 88.2% | viability, T/C [8] 84% | viability, T/C [27] 99% | viability, T/C [28] 77.7% | viability, T/C [9] 97.8% | viability, T/C [10] 97.2% | viability, T/C [11] 114% | viability, T/C [12] 106% | viability, T/C [29] 93% | viability, T/C [30] 68.2% | viability, T/C [13] 92.8% | viability, T/C [14] 91.4% | viability, T/C [15] 108% | viability, T/C [16] 103% | viability, T/C [31] 117% | viability, T/C [32] 80.9% | viability, T/C [17] 112% | viability, T/C [18] 88.9% | viability, T/C [19] 111% | viability, T/C [20] 89% | viability, T/C [33] 94.1% | viability, T/C [34] 77.8% | viability, T/C [21] 82.1% | viability, T/C [22] 111% | viability, T/C [23] 104% | viability, T/C [24] 87% | viability, T/C [35] 101% | viability, T/C [36] 71%
